Assay results: US8530493B2, “Indolopyridines as Eg5 kinesin modulators” (4SC AG, priority 2006, dated 2013)

What was measured:
[1] = test system: RKO p27 uninduced (proliferating) colon adenocarcinoma cells; test: Alamar Blue cell viability assay, RKO p27 uninduced (proliferating); assay type: cell-based; conditions: Homo sapiens, RKOp27, Table B1, anti-proliferative/cytotoxic activity, 72 hours, read-out: −log EC50 RKO p27 uninduced (proliferating) (converted)
Method: The anti-proliferative/cytotoxic activity of the compounds described herein can be tested on subclones of RKO human colon adenocarcinoma cells (Schmidt et al., Oncogene 19, 2423-2429; 2000) using the Alamar Blue cell viability assay (described in O'Brien et al. Eur J Biochem 267, 5421-5426, 2000). The compounds are dissolved as 10 mM solutions in DMSO and subsequently diluted in semi-logarithmic steps. DMSO dilutions are further diluted 1:100 into Dulbecco's modified Eagle's medium (DMEM) containing 10% fetal calf serum to a final concentration twice as much as the final concentration in the test. RKO subclones are seeded into 96 well flat bottom plates at a density of 4000 cells per well in a volume of 50 μl per well. 24 hours after seeding the 50 μl each of the compound dilutions in DMEM medium are added into each well of the 96 well plate. Each compound dilution is tested as triplicates. Wells containing untreated control cells are filled with 50 μl DMEM medium containing 1% DMSO. The cells are then incubated with the substances for 72 hours at 37° C. in a humidified atmosphere containing 5% carbon dioxide. To determine the viability of the cells, 10 μl of an Alamar Blue solution (Biosource) are added and the fluorescence is measured at an extinction of 544 nm and an emission of 590 nm. For the calculation of the cell viability the emission value from untreated cells is set as 100% viability and the emission rates of treated cells are set in relation to the values of untreated cells. Viabilities are expressed as % values. The Graphpad Prism program is used for the calculation of EC50 values for anti-proliferative/cytotoxic activity out of the obtained dose-response curves.
(§1) To determine the cell cycle specific mode of action, subclones of RKO colon adenocarcinoma cells (RKOp21 or RKOp27 as described by Schmidt et al. in Oncogene 19, 2423-2429; 2000) are seeded into 96 well flat bottom plates at a density of 16000 cells per well in a volume of 50 μl per well in DMEM growth medium with 10% FCS containing 10 μM Ponasterone A. 24 hours after seeding the 50 μl each of the compound dilutions in DMEM medium are added into each well of the 96-well plate. Each compound dilution is tested as triplicates. Wells containing untreated control cells are filled with 50 μl DMEM medium containing 1% DMSO. The cells are then incubated with the substances for 72 hours at 37° C. in a humidified atmosphere containing 5% carbon dioxide. To determine the viability of the cells, 10 μl of an Alamar Blue solution (Biosource) are added and the fluorescence is measured at an extinction of 544 nm and an emission of 590 nm. For the calculation of the cell viability the emission value from untreated cells is set as 100% viability and the emission rates of treated cells are set in relation to the values of untreated cells. Viabilities are expressed as % values. The Graphpad Prism program (GraphPad Software, Inc) is used for the calculation of EC50 values out of the obtained dose-response curves. Viability is compared of proliferating cells grown in the absence of the inducer Ponasterone A, versus viability of cells arrested by the expression of ectopic p27Kip1 induced by Ponasterone A.
(§2) Representative values for anti-proliferation/cytotoxicity [measured as −log EC50 (mol/l)] determined in the aforementioned assays follow from the following tables B1, B2 and B3, in which the numbers of the compounds correspond to the numbers of the examples.

[2] = test system: RKO p27 induced (arrested) colon adenocarcinoma cells; test: Alamar Blue cell viability assay, RKO p27 induced by Ponasterone A (arrested); assay type: cell-based; conditions: Homo sapiens, RKOp27, Table B1, cells arrested by Ponasterone A-induced p27Kip1, 72 hours, read-out: −log EC50 RKO p27 induced (arrested) (converted)
Method: as §1, §2

Row | EC50 [2] [µM] | SMILES | EC50 [1] [µM]
1 | ≥ 3.16 | COc1ccc2[nH]c3c(c2c1)C[C@@]1(C)C(=O)N(CCNCC(C)C)C(=O)N1[C@@H]3c1cccc(O)c1 (racemic) [Example 49, (3aSR,10RS)-10-(3-Hydroxy-phenyl)-2-(2-isobutylamino-ethyl)-6-methoxy-3a-methyl-3a,4,9,10-tetrahydro-2,9,10a-triaza-cyclopenta[b]fluorene-1,3-dione] | ≤ 0.0398
2 | ≥ 3.16 | CC[C@@]12Cc3c([nH]c4ccc(OC)cc34)[C@@H](c3cccc(O)c3)N1C(=O)N(CCN(C)C)C2=O (racemic) [Example 18, (3aSR,10RS)-2-(2-Dimethylamino-ethyl)-3a-ethyl-10-(3-hydroxy-phenyl)-6-methoxy-3a,4,9,10-tetrahydro-2,9,10a-triaza-cyclopenta[b]fluorene-1,3-dione] | ≤ 0.0398
3 | ≥ 3.16 | CCOc1ccc2[nH]c3c(c2c1)C[C@@]1(C)C(=O)N(CCN2CCC2)C(=O)N1[C@@H]3c1cccc(O)c1 (racemic) [Example 46, (3aSR,10RS)-2-(2-Azetidin-1-yl-ethyl)-6-ethoxy-10-(3-hydroxy-phenyl)-3a-methyl-3a,4,9,10-tetrahydro-2,9,10a-triaza-cyclopenta[b]fluorene-1,3-dione] | ≤ 0.0398
4 | ≥ 3.16 | COc1ccc2[nH]c3c(c2c1)C[C@@]1(C)C(=O)N(CCN(C)C)C(=O)N1[C@@H]3c1cccc(O)c1 (racemic) [Example 7, (3aSR,10RS)-2-(2-Dimethylamino-ethyl)-10-(3-hydroxy-phenyl)-6-methoxy-3a-methyl-3a,4,9,10-tetrahydro-2,9,10a-triaza-cyclopenta[b]fluorene-1,3-dione] | ≤ 0.0398
5 | ≥ 3.16 | CCOc1ccc2[nH]c3c(c2c1)C[C@@]1(C)C(=O)N(CCNC)C(=O)N1[C@@H]3c1cccc(O)c1 (racemic) [Example 41, (3aSR,10RS)-6-Ethoxy-10-(3-hydroxy-phenyl)-3a-methyl-2-(2-methylamino-ethyl)-3a,4,9,10-tetrahydro-2,9,10a-triaza-cyclopenta[b]fluorene-1,3-dione] | ≤ 0.0398
6 | ≥ 0.316 | CC(C)NCCN1C(=O)N2[C@H](c3cccc(O)c3)c3[nH]c4ccc(Cl)cc4c3C[C@@]2(C)C1=O (racemic) [Example 38, (3aSR,10RS)-6-Chloro-10-(3-hydroxy-phenyl)-2-(2-isopropylamino-ethyl)-3a-methyl-3a,4,9,10-tetrahydro-2,9,10a-triaza-cyclopenta[b]fluorene-1,3-dione] | ≤ 0.0398
7 | ≥ 3.16 | COc1ccc2[nH]c3c(c2c1)C[C@@]1(C)C(=O)N(CCCCN(C)C)C(=O)N1[C@@H]3c1cccc(O)c1 (racemic) [Example 14, (3aSR,10RS)-2-(4-Dimethylamino-butyl)-10-(3-hydroxy-phenyl)-6-methoxy-3a-methyl-3a,4,9,10-tetrahydro-2,9,10a-triaza-cyclopenta[b]fluorene-1,3-dione] | ≤ 0.0398
8 | ≥ 3.16 | COc1ccc2[nH]c3c(c2c1)C[C@@]1(C)C(=O)N(CCN2CCC2)C(=O)N1[C@@H]3c1cccc(O)c1 (racemic) [Example 33, (3aSR,10RS)-2-(2-Azetidin-1-yl-ethyl)-10-(3-hydroxy-phenyl)-6-methoxy-3a-methyl-3a,4,9,10-tetrahydro-2,9,10a-triaza-cyclopenta[b]fluorene-1,3-dione] | ≤ 0.0398
9 | ≥ 3.16 | CN(C)CCN1C(=O)N2[C@H](c3cccc(O)c3)c3[nH]c4ccc(OC(F)F)cc4c3C[C@@]2(C)C1=O (racemic) [Example 43, (3aSR,10RS)-6-(1,1-Difluoro-methoxy)-2-(2-dimethylamino-ethyl)-10-(3-hydroxy-phenyl)-3a-methyl-3a,4,9,10-tetrahydro-2,9,10a-triaza-cyclopenta[b]fluorene-1,3-dione] | ≤ 0.0398
10 | ≥ 3.16 | C[C@@]12Cc3c([nH]c4ccc(OC(F)F)cc34)[C@@H](c3cccc(O)c3)N1C(=O)N(CCN1CCC1)C2=O (racemic) [Example 44, (3aSR,10RS)-2-(2-Azetidin-1-yl-ethyl)-6-(1,1-difluoro-methoxy)-10-(3-hydroxy-phenyl)-3a-methyl-3a,4,9,10-tetrahydro-2,9,10a-triaza-cyclopenta[b]fluorene-1,3-dione] | ≤ 0.0398
11 | ≥ 0.316 | CCOc1ccc2[nH]c3c(c2c1)C[C@@]1(C)C(=O)N(CCN)C(=O)N1[C@@H]3c1cccc(O)c1 (racemic) [Example 45, (3aSR,10RS)-2-(2-Amino-ethyl)-6-ethoxy-10-(3-hydroxy-phenyl)-3a-methyl-3a,4,9,10-tetrahydro-2,9,10a-triaza-cyclopenta[b]fluorene-1,3-dione] | ≤ 0.0398
12 | ≥ 0.316 | CCNCCN1C(=O)N2[C@H](c3cccc(O)c3)c3[nH]c4ccc(Cl)cc4c3C[C@@]2(C)C1=O (racemic) [Example 37, (3aSR,10RS)-6-Chloro-2-(2-ethylamino-ethyl)-10-(3-hydroxy-phenyl)-3a-methyl-3a,4,9,10-tetrahydro-2,9,10a-triaza-cyclopenta[b]fluorene-1,3-dione] | ≤ 0.0398
13 | ≥ 3.16 | COc1ccc2[nH]c3c(c2c1)C[C@@]1(C)C(=O)N(CCNCC2CC2)C(=O)N1[C@@H]3c1cccc(O)c1 (racemic) [Example 48, (3aSR,10RS)-2-[2-(Cyclopropylmethyl-amino)-ethyl]-10-(3-hydroxy-phenyl)-6-methoxy-3a-methyl-3a,4,9,10-tetrahydro-2,9,10a-triaza-cyclopenta[b]fluorene-1,3-dione] | ≤ 0.0398
14 | ≥ 3.16 | C[C@@]12Cc3c([nH]c4ccc(Cl)cc34)[C@@H](c3cccc(O)c3)N1C(=O)N(CCn1ccnc1)C2=O (racemic) [Example 31, (3aSR,10RS)-6-Chloro-10-(3-hydroxy-phenyl)-2-(2-imidazol-1-yl-ethyl)-3a-methyl-3a,4,9,10-tetrahydro-2,9,10a-triaza-cyclopenta[b]fluorene-1,3-dione] | 0.0398 to 0.251
15 | ≥ 3.16 | CC(C)N(C)CCN1C(=O)N2[C@H](c3cccc(O)c3)c3[nH]c4ccc(Cl)cc4c3C[C@@]2(C)C1=O (racemic) [Example 39, (3aSR,10RS)-6-Chloro-10-(3-hydroxy-phenyl)-2-[2-(isopropyl-methyl-amino)-ethyl]-3a-methyl-3a,4,9,10-tetrahydro-2,9,10a-triaza-cyclopenta[b]fluorene-1,3-dione] | ≤ 0.0398
16 | ≥ 3.16 | CCOc1ccc2[nH]c3c(c2c1)C[C@@]1(C)C(=O)N(CCN(C)C)C(=O)N1[C@@H]3c1cccc(O)c1 (racemic) [Example 23, (3aSR,10RS)-2-(2-Dimethylamino-ethyl)-6-ethoxy-10-(3-hydroxy-phenyl)-3a-methyl-3a,4,9,10-tetrahydro-2,9,10a-triaza-cyclopenta[b]fluorene-1,3-dione] | ≤ 0.0398
17 | ≥ 3.16 | COc1ccc2[nH]c3c(c2c1)C[C@@]1(C)C(=O)N(CCN)C(=O)N1[C@@H]3c1cccc(O)c1 (racemic) [Example 25, (3aSR,10RS)-2-(2-Amino-ethyl)-10-(3-hydroxy-phenyl)-6-methoxy-3a-methyl-3a,4,9,10-tetrahydro-2,9,10a-triaza-cyclopenta[b]fluorene-1,3-dione] | ≤ 0.0398
18 | ≥ 3.16 | CCNCCCN1C(=O)N2[C@H](c3cccc(O)c3)c3[nH]c4ccc(OC)cc4c3C[C@@]2(C)C1=O (racemic) [Example 51, (3aSR,10RS)-2-(3-Ethylamino-propyl)-10-(3-hydroxy-phenyl)-6-methoxy-3a-methyl-3a,4,9,10-tetrahydro-2,9,10a-triaza-cyclopenta[b]fluorene-1,3-dione] | ≤ 0.0398
